# Measurements reported in patent US5543392A, “Digestive tract cell activating agent of EGF and lactoferrin” (Morinaga Milk Industry Co., Ltd., priority 1992, dated 1996).
# Assays:
# IEC18 cells [1] = test: Test 1: DNA synthesis acceleration activity of EGF (3H-thymidine incorporation); type: cell-based, rat; details: for Quantity of incorporated 3H thymidine, average value (n = 4): 18 h, 1% FBS-DMEM
# Protocol: This test was carried out to determine an optimum concentration for DNA synthesis acceleration activity of EGF relative to small intestine epithelial cells.
# IEC18 cells (purchased from the American Type Culture Collection) which are epithelial crypt-cells of rat small intestine were inoculated into a 24-well culture plate by 10,000 cells per hole and cultured with Dulbecco modified Eagle's medium containing 10% fetal bovine serum (hereinafter abbreviated as "10% FBS-DMEM") until the cells became confluence (1 ml of medium was used per well). Then, the medium was replaced with 1% FBS-DMEM culture was conducted for another three days to introduce the cell cycle into the resting phase. The medium was replaced with of 1% FBS-DMEM (0.5 ml) containing EGF at various concentrations and culture was conducted for 18 hours. Then, the medium was replaced with DME (0.35 ml) containing ^3 H-thymidine (tritium labeling: thymidine 1 micro curie/ml), the cultuure was conducted for another two hours. The result cells were rinsed twice with phosphate-buffered saline [PBS (-), 2 ml], then, ice-cooled 5% trifluoroacetic acid (5% TFA, 2 ml) was added. This was stored in a refrigerator for an hour. The cells were washed twice with 5% TFA (2 ml) and 1N NaOH (0.4 ml) was added. By holding this at 37° C. for an hour, the cells were dissolved. Then, the solution was neutralized by adding 6N HCl (0.08 ml), and therefore, the quantity of ^3 H-thymidine incorporated into DNA was measured by means of a liquid scintillation counter.
# IEC18 cells [2] = test: Test 3: proliferation of small intestine epithelial cells (cell count by hemocytometer); type: cell-based, rat; details: single addition of 10 ng/ml EGF; ten days culture; versus control group with no addition
# Protocol: ICE18 cells (the same ones as in the Test 1) were inoculated onto a 24-well culture plate by 5,000 cells per well, and were cultured for ten days with 1% FBS DMEM (0.5 ml) containing the following test subjects. During this test period, the medium was replaced on the third and the sixth days, and the number of cells was measured on the third, the sixth and the tenth days. The number of cells was counted by a hemocytometer after treating the cells with 0.25% trypsin solution and suspending them in the solution.
# The test subjects included a sample added with nothing, a sample added with 10 ng/ml EGF, a sample added with 50 μg/ml bLf or bLf-Hy, and a sample added with 10 ng/ml EGF and 50 μg/ml bLf or bLf-Hy.
substance,measurement,setting,value
"EGF: Commercially available mouse submaxillary gland originating EGF (manufactured by Takara Shuzo Company) (NSYPGCPSSYDGYCLNGGVCMHIESLDSYTCNCVIGYSGDRCQTRDLRWWELR; not fully specified; Epidermal growth factor; UniProt P01132 977-1029, looked up)","Quantity of incorporated 3H thymidine, average value (n = 4)",IEC18 cells [1]; EGF concentration 0.08 ng/ml,17874 cpm
same,"Quantity of incorporated 3H thymidine, average value (n = 4)",IEC18 cells [1]; EGF concentration 0.2 ng/ml (so in the source),25398 cpm
same,"Quantity of incorporated 3H thymidine, average value (n = 4)",IEC18 cells [1]; EGF concentration 0.4 ng/ml,19644 cpm
same,"Quantity of incorporated 3H thymidine, average value (n = 4)",IEC18 cells [1]; EGF concentration 10.0 ng/ml,26152 cpm
same,"Quantity of incorporated 3H thymidine, average value (n = 4)",IEC18 cells [1]; EGF concentration 50.0 ng/ml,22665 cpm
same,optimum working concentration of EGF for DNA synthesis,IEC18 cells [1]; IEC18 cells,10 ng/mL
same,number of cells (FIGS. 3 and 4),IEC18 cells [2],absence of effect
